We go through eight compounds from PubChem BioAssay (NCI).

Test systems include NCI/ADR-RES ovarian; CCRF-CEM leukemia; HS 578T breast; MOLT-4 leukemia; UO-31 renal; HCT-116 colon; A549 NSCLC; CAKI-1 renal; PC-3 prostate; SK-MEL-2 melanoma.
Common to all, as to assay: NCI-60 cell line screen, 48 h

Several values for one entry are separate records, joined by “and”; a condition that tells them apart may be missing. Equal entries are not always repeated.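 Cultured in 96-well plates, cells were exposed to test compound for 48 hours across five concentrations. Abbreviation: GI50, concentration required for 50% inhibition of growth. The concentration for full growth arrest is given as TGI.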

In the case of `COc1ccc(Cc2nc3cc(OC)c(OC)cc3c(=O)[nH]2)cc1`, the GI50 in the assay with NCI/ADR-RES ovarian is 12.4 µM; in the assay on CCRF-CEM leukemia it was 6.53 µM; with HS 578T breast it was 9.98 µM; in the assay on MOLT-4 leukemia it was 5.36 µM; in the assay on UO-31 renal it was 4.66 µM; with HCT-116 colon, 4.78 µM. For the same compound, the GI50 with A549 NSCLC was 3.61 µM; in the assay with CAKI-1 renal, 6.64 µM; in the assay with PC-3 prostate it was 22 µM. In addition, the TGI with NCI/ADR-RES ovarian was 59 µM; in the assay with CCRF-CEM leukemia, > 100 µM; in the assay with HS 578T breast it was 99.2 µM; with MOLT-4 leukemia, > 59.6 µM; in the assay on UO-31 renal, > 100 µM; with HCT-116 colon, > 100 µM. Besides, the values for the TGI with A549 NSCLC, with CAKI-1 renal and with PC-3 prostate were > 54.3 µM, > 93.4 µM and > 100 µM, respectively.

With `C=CCN=C(N/N=C/c1ccc([N+](=O)[O-])o1)NS(=O)(=O)c1cc(C(=O)Nc2ccccc2)c(Cl)cc1SCC(N)=O`, the GI50 with NCI/ADR-RES ovarian was > 100 µM; with CCRF-CEM leukemia, 5.73 µM; with HS 578T breast, 15.6 µM; with MOLT-4 leukemia it was 13.4 µM; in the assay on UO-31 renal, > 100 µM; in the assay on HCT-116 colon, 20.2 µM. The GI50 was 16.1 µM with SK-MEL-2 melanoma, > 100 µM in the assay on A549 NSCLC, > 100 µM in the assay with CAKI-1 renal and 33 µM in the assay on PC-3 prostate. For the same compound, the TGI in the assay with NCI/ADR-RES ovarian is > 100 µM; in the assay with CCRF-CEM leukemia, 27.6 µM; with HS 578T breast, 66.3 µM; in the assay with MOLT-4 leukemia, 43.9 µM; in the assay with UO-31 renal it was > 100 µM; with HCT-116 colon, 49 µM. Further, the TGI in the assay on SK-MEL-2 melanoma is 45.3 µM; with A549 NSCLC, > 100 µM; in the assay on CAKI-1 renal, > 100 µM; in the assay with PC-3 prostate, > 100 µM.

With `COc1ccc(/C=C/C(C)=N/OCC(=O)Nc2ccc(Cl)cc2)cc1`, the GI50 in the assay on NCI/ADR-RES ovarian is 2.9 µM; in the assay with CCRF-CEM leukemia, 2.41 µM; in the assay on HS 578T breast, 5.85 µM; in the assay on MOLT-4 leukemia, 2.23 µM; in the assay on UO-31 renal it was 1.67 µM; in the assay with HCT-116 colon, 1.99 µM. The GI50 in the assay on SK-MEL-2 melanoma is 3.69 µM; with A549 NSCLC, 3.06 µM; in the assay with CAKI-1 renal, 2.29 µM; in the assay with PC-3 prostate, 1.84 µM. Besides, the TGI with NCI/ADR-RES ovarian turned out to be 15.3 µM; in the assay on CCRF-CEM leukemia, 29.9 µM; in the assay with HS 578T breast, 78.5 µM; with MOLT-4 leukemia, 9.97 µM; in the assay on UO-31 renal it was 22 µM; in the assay on HCT-116 colon, 9.39 µM. Moreover, the TGI with SK-MEL-2 melanoma came to 13.5 µM; with A549 NSCLC, 45.6 µM; in the assay with CAKI-1 renal it was 27 µM; with PC-3 prostate it was 13.1 µM.

Consider `O=C(Oc1ccc2c(c1)CN(Cc1ccccc1)CO2)c1ccccc1`, for which the TGI with NCI/ADR-RES ovarian is 59.3 µM; with CCRF-CEM leukemia it was > 100 µM; in the assay on HS 578T breast, 61.5 µM; in the assay on MOLT-4 leukemia, 54.1 µM; in the assay on UO-31 renal it was 31.8 µM; in the assay with HCT-116 colon it was 30.6 µM. The TGI was determined as 50.5 µM with SK-MEL-2 melanoma, 40.6 µM in the assay on A549 NSCLC, 37.8 µM in the assay on CAKI-1 renal and 29.4 µM in the assay with PC-3 prostate.

For the compound `Cc1ccc(C2=C(Cl)C(=O)C(c3ccc(C)cc3)=C(Cl)C2=O)cc1`, the TGI in the assay on NCI/ADR-RES ovarian, in the assay with CCRF-CEM leukemia, in the assay with HS 578T breast, in the assay on MOLT-4 leukemia, with UO-31 renal and with HCT-116 colon was > 100 µM in each case. Further, the TGI in the assay with A549 NSCLC, in the assay on CAKI-1 renal and in the assay on PC-3 prostate was > 100 µM in each case.

`NC(N)=N/N=C(/c1ccccc1)c1ccccc1F`: the GI50 was 2.69 µM in the assay with NCI/ADR-RES ovarian; 5.08 µM in the assay on CCRF-CEM leukemia; 2.79 µM in the assay on HS 578T breast; 5.57 µM in the assay on MOLT-4 leukemia; 4.48 µM in the assay on UO-31 renal; 2.37 µM in the assay with HCT-116 colon. Further, the GI50 in the assay on SK-MEL-2 melanoma is 12.2 µM; in the assay on A549 NSCLC, 4.51 µM; with CAKI-1 renal, 4.26 µM; in the assay on PC-3 prostate, 4.7 µM. For the same compound, the TGI with NCI/ADR-RES ovarian is 9.74 µM; with CCRF-CEM leukemia, > 100 µM; in the assay on HS 578T breast it was 11.6 µM; in the assay on MOLT-4 leukemia it was > 100 µM; in the assay on UO-31 renal, 31.6 µM; with HCT-116 colon, 12.3 µM. Moreover, the TGI in the assay with SK-MEL-2 melanoma was 36.7 µM; in the assay on A549 NSCLC, 36.8 µM; with CAKI-1 renal, 31.4 µM; in the assay on PC-3 prostate, > 57.7 µM.

With `CNCc1cccc2c1OCCOCCOCCC(C)S(=O)(=O)c1ccc(cc1)-c1cnc(N)c(n1)C(=O)N2` (centres undefined), the GI50 was 5.31 µM in the assay with NCI/ADR-RES ovarian; 0.67 µM with CCRF-CEM leukemia; 0.602 µM with HS 578T breast; 1.3 µM in the assay on MOLT-4 leukemia; 0.623 µM in the assay on UO-31 renal; 1.18 µM with HCT-116 colon. The GI50 is 2.37 µM in the assay with SK-MEL-2 melanoma, 1.09 µM with A549 NSCLC, 0.365 µM with CAKI-1 renal and 1.49 µM in the assay with PC-3 prostate. In addition, the TGI with NCI/ADR-RES ovarian was found to be 29.1 µM; in the assay on CCRF-CEM leukemia it was 7.2 µM; in the assay with HS 578T breast, 3.09 µM; in the assay with MOLT-4 leukemia it was 10.3 µM; in the assay on UO-31 renal, 2.09 µM; in the assay with HCT-116 colon, 3.35 µM. In addition, the TGI with SK-MEL-2 melanoma came to 6.36 µM; in the assay with A549 NSCLC, 6.83 µM; with CAKI-1 renal, 2.22 µM; with PC-3 prostate, 17.9 µM.

In the case of `O=NN(CCCl)C(=O)NC1CCCCC1`, the TGI in the assay on NCI/ADR-RES ovarian was 186 µM; in the assay on CCRF-CEM leukemia it was 40.9 µM and 98.4 µM and 57.5 µM; with HS 578T breast, 104 µM; in the assay on MOLT-4 leukemia it was 38.4 µM and 99.1 µM and 80.3 µM; in the assay on UO-31 renal, 54.6 µM and 168 µM and 206 µM; in the assay with HCT-116 colon, 50.2 µM and 105 µM. For the same compound, the TGI was 49.4 µM and 159 µM and 272 µM in the assay on SK-MEL-2 melanoma; 184 µM and 244 µM in the assay on A549 NSCLC; 41.7 µM and 101 µM and 142 µM with CAKI-1 renal; 136 µM with PC-3 prostate. In addition, the GI50 was 8.23 µM and 22.6 µM in the assay on CCRF-CEM leukemia; 20.7 µM and 36.1 µM in the assay on MOLT-4 leukemia; 22 µM and 52.9 µM with UO-31 renal; 21 µM in the assay on HCT-116 colon; 22.7 µM and 194 µM in the assay with SK-MEL-2 melanoma; 45.6 µM and 92.2 µM in the assay on A549 NSCLC. Also, the GI50 in the assay on CAKI-1 renal was 22.9 µM and 30.5 µM and 60.5 µM.
